Reference: the Kinase Knowledgebase extract (Sharma et al. 2016)

Assays:
Test in all cases: Enzyme Assay
PIK3CA (human) = PIK3CA (human) (UniProt P42336)
PIK3CB (Human) = PIK3CB (Human) (UniProt P42338)
PIK3CD (Human) = PIK3CD (Human) (UniProt O00329)
PIK3CG (human) = PIK3CG (human) (UniProt P48736)
Sequence of PIK3CG (human) (P48736 whole entry, looked up): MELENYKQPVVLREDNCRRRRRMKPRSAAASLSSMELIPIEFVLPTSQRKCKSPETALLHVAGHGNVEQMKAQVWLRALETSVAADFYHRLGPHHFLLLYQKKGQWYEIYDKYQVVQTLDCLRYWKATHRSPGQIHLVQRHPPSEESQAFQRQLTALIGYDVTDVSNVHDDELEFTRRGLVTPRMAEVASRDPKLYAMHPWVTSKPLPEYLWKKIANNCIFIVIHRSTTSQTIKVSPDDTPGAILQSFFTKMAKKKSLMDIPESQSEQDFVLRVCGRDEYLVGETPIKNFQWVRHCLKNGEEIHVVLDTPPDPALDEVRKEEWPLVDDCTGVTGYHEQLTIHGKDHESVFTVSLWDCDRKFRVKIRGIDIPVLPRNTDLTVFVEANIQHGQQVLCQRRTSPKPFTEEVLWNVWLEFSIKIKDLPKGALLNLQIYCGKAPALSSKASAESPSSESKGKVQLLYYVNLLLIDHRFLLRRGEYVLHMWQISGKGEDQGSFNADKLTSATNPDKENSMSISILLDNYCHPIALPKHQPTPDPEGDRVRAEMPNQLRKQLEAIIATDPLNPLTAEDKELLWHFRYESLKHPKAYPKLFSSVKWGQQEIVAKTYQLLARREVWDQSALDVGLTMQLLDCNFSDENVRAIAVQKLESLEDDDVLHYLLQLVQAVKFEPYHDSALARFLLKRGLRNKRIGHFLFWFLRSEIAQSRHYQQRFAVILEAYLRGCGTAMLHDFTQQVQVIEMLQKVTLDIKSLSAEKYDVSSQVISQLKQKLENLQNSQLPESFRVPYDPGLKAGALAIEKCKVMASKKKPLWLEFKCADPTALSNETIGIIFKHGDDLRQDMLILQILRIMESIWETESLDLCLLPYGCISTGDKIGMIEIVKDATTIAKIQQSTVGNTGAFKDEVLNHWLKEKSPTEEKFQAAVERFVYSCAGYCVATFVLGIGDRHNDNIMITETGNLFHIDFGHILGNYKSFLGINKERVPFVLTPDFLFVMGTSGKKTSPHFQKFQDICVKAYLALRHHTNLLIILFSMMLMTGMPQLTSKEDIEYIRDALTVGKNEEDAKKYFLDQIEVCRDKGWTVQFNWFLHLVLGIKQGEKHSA

Sequence of PIK3CD (Human) (O00329 whole entry, looked up): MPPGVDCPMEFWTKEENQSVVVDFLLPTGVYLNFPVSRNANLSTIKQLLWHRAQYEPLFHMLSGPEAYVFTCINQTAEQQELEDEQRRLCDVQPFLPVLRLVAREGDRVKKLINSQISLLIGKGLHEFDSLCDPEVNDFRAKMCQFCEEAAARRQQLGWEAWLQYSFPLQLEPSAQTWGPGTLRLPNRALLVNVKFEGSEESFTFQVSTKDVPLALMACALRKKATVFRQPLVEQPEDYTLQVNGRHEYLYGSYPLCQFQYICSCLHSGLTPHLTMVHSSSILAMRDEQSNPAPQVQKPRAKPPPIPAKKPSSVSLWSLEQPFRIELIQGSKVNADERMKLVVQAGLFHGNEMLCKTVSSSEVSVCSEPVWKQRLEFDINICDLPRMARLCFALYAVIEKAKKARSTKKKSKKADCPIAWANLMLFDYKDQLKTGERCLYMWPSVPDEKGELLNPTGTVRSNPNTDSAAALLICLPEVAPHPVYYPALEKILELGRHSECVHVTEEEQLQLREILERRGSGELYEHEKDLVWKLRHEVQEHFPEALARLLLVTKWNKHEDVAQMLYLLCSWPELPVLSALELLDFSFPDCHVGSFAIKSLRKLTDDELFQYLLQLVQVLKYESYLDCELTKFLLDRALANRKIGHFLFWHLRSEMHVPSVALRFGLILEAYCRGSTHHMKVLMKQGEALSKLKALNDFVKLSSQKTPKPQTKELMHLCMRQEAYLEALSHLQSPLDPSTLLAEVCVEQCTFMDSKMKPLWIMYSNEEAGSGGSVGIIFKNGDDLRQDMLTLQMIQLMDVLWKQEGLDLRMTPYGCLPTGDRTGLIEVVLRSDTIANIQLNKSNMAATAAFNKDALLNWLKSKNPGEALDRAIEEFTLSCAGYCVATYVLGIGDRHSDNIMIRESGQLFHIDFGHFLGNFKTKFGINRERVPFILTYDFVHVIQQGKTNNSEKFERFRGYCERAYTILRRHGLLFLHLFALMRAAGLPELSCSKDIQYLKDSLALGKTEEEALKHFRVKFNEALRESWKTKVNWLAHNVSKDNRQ
Sequence of PIK3CA (human) (P42336 whole entry, looked up): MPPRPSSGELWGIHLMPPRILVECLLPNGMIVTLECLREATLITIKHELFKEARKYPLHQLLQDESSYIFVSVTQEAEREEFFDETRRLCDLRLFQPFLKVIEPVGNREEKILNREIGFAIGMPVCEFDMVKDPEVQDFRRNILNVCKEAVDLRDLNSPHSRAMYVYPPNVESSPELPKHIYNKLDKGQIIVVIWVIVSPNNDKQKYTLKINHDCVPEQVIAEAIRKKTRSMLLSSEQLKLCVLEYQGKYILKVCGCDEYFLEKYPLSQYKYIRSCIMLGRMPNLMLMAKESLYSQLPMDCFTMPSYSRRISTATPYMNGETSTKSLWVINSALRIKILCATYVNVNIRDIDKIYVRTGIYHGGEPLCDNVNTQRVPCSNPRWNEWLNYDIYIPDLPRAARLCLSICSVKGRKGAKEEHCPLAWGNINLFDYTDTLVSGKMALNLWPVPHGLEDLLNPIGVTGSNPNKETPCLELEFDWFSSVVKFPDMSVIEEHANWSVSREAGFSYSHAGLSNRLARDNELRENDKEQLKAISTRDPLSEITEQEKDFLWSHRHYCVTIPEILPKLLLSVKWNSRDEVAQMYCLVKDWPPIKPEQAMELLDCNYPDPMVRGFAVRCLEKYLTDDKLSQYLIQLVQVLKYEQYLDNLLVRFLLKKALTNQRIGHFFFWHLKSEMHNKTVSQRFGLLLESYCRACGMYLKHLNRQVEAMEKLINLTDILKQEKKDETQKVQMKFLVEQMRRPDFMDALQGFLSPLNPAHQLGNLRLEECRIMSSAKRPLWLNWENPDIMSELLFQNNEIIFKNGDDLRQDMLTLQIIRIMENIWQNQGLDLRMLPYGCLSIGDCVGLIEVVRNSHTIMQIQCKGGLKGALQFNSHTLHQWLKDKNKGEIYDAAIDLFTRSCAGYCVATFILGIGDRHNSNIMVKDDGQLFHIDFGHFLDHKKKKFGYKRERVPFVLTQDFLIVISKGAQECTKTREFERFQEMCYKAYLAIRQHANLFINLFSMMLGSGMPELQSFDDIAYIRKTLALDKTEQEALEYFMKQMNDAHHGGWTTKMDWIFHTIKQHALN
Sequence of PIK3CB (Human) (P42338 whole entry, looked up): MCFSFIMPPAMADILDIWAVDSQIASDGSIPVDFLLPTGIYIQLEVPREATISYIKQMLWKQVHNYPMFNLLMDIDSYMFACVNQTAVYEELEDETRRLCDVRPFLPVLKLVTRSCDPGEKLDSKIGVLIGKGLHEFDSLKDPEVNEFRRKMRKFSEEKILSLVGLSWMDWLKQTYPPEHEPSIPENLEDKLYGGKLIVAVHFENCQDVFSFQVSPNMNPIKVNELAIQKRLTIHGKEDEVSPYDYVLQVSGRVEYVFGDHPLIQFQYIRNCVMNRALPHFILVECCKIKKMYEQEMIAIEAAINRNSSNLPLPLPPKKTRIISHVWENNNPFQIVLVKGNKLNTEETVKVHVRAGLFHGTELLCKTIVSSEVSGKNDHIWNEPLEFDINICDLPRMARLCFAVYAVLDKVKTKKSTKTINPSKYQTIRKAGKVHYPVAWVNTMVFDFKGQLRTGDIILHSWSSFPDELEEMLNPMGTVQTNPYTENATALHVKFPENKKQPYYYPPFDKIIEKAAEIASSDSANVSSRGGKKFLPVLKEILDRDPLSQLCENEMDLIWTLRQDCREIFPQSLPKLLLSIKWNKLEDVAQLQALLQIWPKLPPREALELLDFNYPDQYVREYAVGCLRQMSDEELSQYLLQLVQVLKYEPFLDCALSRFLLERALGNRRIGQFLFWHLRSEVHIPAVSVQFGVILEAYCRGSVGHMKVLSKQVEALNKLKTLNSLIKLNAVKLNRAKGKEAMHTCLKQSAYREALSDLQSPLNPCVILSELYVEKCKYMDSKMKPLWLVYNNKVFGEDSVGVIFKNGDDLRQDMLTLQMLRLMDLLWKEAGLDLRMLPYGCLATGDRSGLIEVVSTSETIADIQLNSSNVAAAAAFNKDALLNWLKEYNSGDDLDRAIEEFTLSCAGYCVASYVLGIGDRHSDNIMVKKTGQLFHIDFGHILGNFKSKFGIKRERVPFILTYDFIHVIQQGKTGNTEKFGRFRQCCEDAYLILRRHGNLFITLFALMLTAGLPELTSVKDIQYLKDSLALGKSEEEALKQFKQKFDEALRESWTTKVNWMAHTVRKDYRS

Row | IC50 (PIK3CA (human)) | IC50 (PIK3CB (Human)) | IC50 (PIK3CD (Human)) | IC50 (PIK3CG (human)) | Ki (PIK3CD (Human)) | SMILES
1 | > 25.1 µM | 12.6 µM | 0.1 µM | 10 µM | – | Cn1ccc(C(=O)Nc2cc(-c3cccc4[nH]ccc34)cc3[nH]ncc23)n1
2 | 12.6 µM | 3.16 µM | 0.00126 µM | 10 µM | – | CC(C)N1CCN(Cc2nnc(-c3cc(-c4cccc5[nH]ccc45)cc4[nH]ncc34)o2)CC1
3 | 20 µM | 3.16 µM | 0.0158 µM | 0.794 µM | – | Cc1cccc(C(=O)Nc2cc(-c3cccc4[nH]ccc34)cc3[nH]ncc23)n1
4 | > 25.1 µM | 12.6 µM | 0.501 µM | 7.94 µM | – | O=C(Nc1cc(-c2cccc3[nH]ccc23)cc2[nH]ncc12)c1csc(-c2ccccc2)n1
5 | 10 µM | 1.26 µM | 0.0631 µM | 0.398 µM | – | Cc1cnc(-c2cc(-c3cccc4[nH]ccc34)cc3[nH]ncc23)o1
6 | > 25.1 µM | 6.31 µM | 0.398 µM | 2.51 µM | – | Cc1csc(-c2cc(-c3cccc4[nH]ccc34)cc3[nH]ncc23)n1
7 | 5.01 µM | 2.51 µM | 0.126 µM | 2 µM | – | Cc1ccc(-c2cc(-c3cccc4[nH]ccc34)cc3[nH]ncc23)o1
8 | > 25.1 µM | > 25.1 µM | 0.501 µM | > 25.1 µM | – | Cc1nc(C(=O)Nc2cc(-c3cnc(Cl)c(N(C)S(=O)(=O)c4ccccc4)c3)cc3[nH]ncc23)cs1
9 | 0.794 µM | 0.794 µM | 0.0126 µM | 0.2 µM | – | COc1ncc(-c2cc(NC(=O)c3csc(C)n3)c3cn[nH]c3c2)cc1NS(C)(=O)=O
10 | 7.94 µM | 6.31 µM | 0.794 µM | 3.98 µM | – | Cc1ccc(-c2cc(-c3cccc4[nH]ccc34)cc3[nH]ncc23)s1
11 | 15.8 µM | 7.94 µM | 0.316 µM | 12.6 µM | – | Cc1nc(C(=O)Nc2cc(-c3cccc(O)c3)cc3[nH]ncc23)cs1
12 | > 25.1 µM | > 25.1 µM | 5.01 µM | > 25.1 µM | – | Cc1nc(C(=O)Nc2cc(-c3cccc4c3ccn4C)cc3[nH]ncc23)cs1
13 | 0.316 µM | 1 µM | 0.002 µM | 0.0501 µM | – | Cc1nc(C(=O)Nc2cc(-c3cnc(Cl)c(NS(C)(=O)=O)c3)cc3[nH]ncc23)cs1
14 | 6.31 µM | 2.51 µM | 0.0126 µM | 7.94 µM | – | COc1cc(-c2cc(NC(=O)c3csc(C)n3)c3cn[nH]c3c2)c2cc[nH]c2c1
15 | 0.398 µM | 2.51 µM | > 25.1 µM | 0.316 µM | 0.0001 µM | COc1ncc(-c2cc(NC(=O)c3csc(CN4C[C@@H](C)O[C@@H](C)C4)n3)c3cn[nH]c3c2)cc1NS(C)(=O)=O
16 | 12.6 µM | 3.98 µM | 0.00398 µM | 15.8 µM | – | CC(C)N1CCN(Cc2coc(-c3cc(-c4cccc5[nH]ccc45)cc4[nH]ncc34)n2)CC1
17 | > 25.1 µM | > 25.1 µM | 15.8 µM | > 25.1 µM | – | CN(C(=O)c1ccccn1)c1cc(-c2cccc3[nH]ccc23)cc2[nH]ncc12
18 | 25.1 µM | 20 µM | 1 µM | > 25.1 µM | – | Cc1nc(C(=O)Nc2cc(-c3cnc(Cl)c(CS(=O)(=O)c4ccccc4)c3)cc3[nH]ncc23)cs1
19 | > 25.1 µM | > 25.1 µM | 1 µM | 20 µM | – | CC(C)n1nccc1C(=O)Nc1cc(-c2cccc3[nH]ccc23)cc2[nH]ncc12
20 | 7.94 µM | > 25.1 µM | 0.0794 µM | 0.316 µM | – | Cc1nc(C(=O)Nc2cc(-c3cncc(NS(C)(=O)=O)c3)cc3[nH]ncc23)cs1
21 | 7.94 µM | 7.94 µM | 0.00398 µM | 10 µM | – | O=C(Nc1cc(-c2cccc3[nH]ccc23)cc2[nH]ncc12)c1csc(CN2CCN3CCC[C@H]3C2)n1
22 | > 25.1 µM | 15.8 µM | 0.126 µM | 1.26 µM | – | Cc1ccc(C(=O)Nc2cc(-c3cccc4[nH]ccc34)cc3[nH]ncc23)nc1
23 | > 25.1 µM | > 25.1 µM | 0.316 µM | > 25.1 µM | – | Cc1nc(C(=O)Nc2cc(-c3cccc4[nH]cnc34)cc3[nH]ncc23)cs1
24 | 12.6 µM | 3.16 µM | 0.0158 µM | 3.16 µM | – | Cc1nc(C(=O)Nc2cc(-c3cc(F)cc4[nH]ccc34)cc3[nH]ncc23)cs1
25 | > 25.1 µM | 10 µM | 0.0501 µM | 3.98 µM | – | Cc1nc(C(=O)Nc2cc(-c3cccc4[nH]ccc34)cc3[nH]ncc23)cs1
26 | 7.94 µM | 3.16 µM | 0.02 µM | 3.16 µM | – | Cc1cc2c(-c3cc(NC(=O)c4csc(C)n4)c4cn[nH]c4c3)cccc2[nH]1

Row | IC50 (PIK3CA (human)) | IC50 (PIK3CB (Human)) | IC50 (PIK3CD (Human)) | IC50 (PIK3CG (human)) | Ki (PIK3CD (Human)) | SMILES
27 | 15.8 µM | 15.8 µM | 0.631 µM | 3.98 µM | – | Cc1nc(C(=O)Nc2cc(-c3ccc(Cl)c(NS(C)(=O)=O)c3)cc3[nH]ncc23)cs1
28 | 10 µM | 7.94 µM | 0.00631 µM | 3.16 µM | – | O=C(Nc1cc(-c2cccc3[nH]ccc23)cc2[nH]ncc12)c1csc(CN2CCOCC2)n1
29 | 12.6 µM | 1.26 µM | 0.00501 µM | 2.51 µM | – | C[C@@H]1CN(Cc2coc(-c3cc(-c4cccc5[nH]ccc45)cc4[nH]ncc34)n2)C[C@H](C)O1
30 | 12.6 µM | 5.01 µM | 0.002 µM | 2.51 µM | – | C[C@@H]1CN(Cc2nc(C(=O)Nc3cc(-c4cccc5[nH]ccc45)cc4[nH]ncc34)cs2)C[C@H](C)O1
31 | 0.501 µM | 0.631 µM | – | 0.501 µM | – | COc1ncc(-c2cc(-c3ncc(CN4C[C@@H](C)O[C@@H](C)C4)o3)c3cn[nH]c3c2)cc1NS(C)(=O)=O
32 | 3.16 µM | 3.98 µM | 0.0316 µM | 0.631 µM | – | Cc1nc(C(=O)Nc2cc(-c3cnc(C)c(NS(C)(=O)=O)c3)cc3[nH]ncc23)cs1
33 | > 25.1 µM | > 25.1 µM | 0.316 µM | 6.31 µM | – | Cc1nc(C(=O)Nc2cc(-c3cccc4[nH]ncc34)cc3[nH]ncc23)cs1
34 | 12.6 µM | 0.794 µM | 0.126 µM | 0.631 µM | – | Cc1coc(-c2cc(-c3cccc4[nH]ccc34)cc3[nH]ncc23)n1
35 | 7.94 µM | 5.01 µM | 0.00794 µM | 0.251 µM | – | Cc1nc(C(=O)Nc2cc(-c3ccnc4[nH]ccc34)cc3[nH]ncc23)cs1
36 | > 25.1 µM | 20 µM | 0.794 µM | 20 µM | – | Cn1nccc1C(=O)Nc1cc(-c2cccc3[nH]ccc23)cc2[nH]ncc12
37 | > 25.1 µM | 12.6 µM | 0.0126 µM | > 25.1 µM | – | O=C(Nc1cc(-c2cccc3[nH]ccc23)cc2[nH]ncc12)c1cccc(CN2CCCCC2)n1
38 | 10 µM | 1.26 µM | 0.0794 µM | 1.26 µM | – | c1cc(-c2cc(-c3ncco3)c3cn[nH]c3c2)c2cc[nH]c2c1
39 | > 25.1 µM | 1 µM | 0.00316 µM | 2 µM | – | C[C@@H]1CN(Cc2nnc(-c3cc(-c4cccc5[nH]ccc45)cc4[nH]ncc34)o2)C[C@H](C)O1
40 | 5.01 µM | 1.58 µM | > 25.1 µM | 6.31 µM | 0.000126 µM | CC(C)N1CCN(Cc2cnc(-c3cc(-c4cccc5[nH]ccc45)cc4[nH]ncc34)o2)CC1
41 | 20 µM | 15.8 µM | 0.01 µM | 15.8 µM | – | O=C(Nc1cc(-c2cccc3[nH]ccc23)cc2[nH]ncc12)c1csc(CN2CCCCC2)n1
42 | 1.26 µM | 1.58 µM | 0.00316 µM | 3.98 µM | – | CC(C)N1CCN(Cc2nc(C(=O)Nc3cc(-c4cccc5[nH]ccc45)cc4[nH]ncc34)cs2)CC1
43 | 5.01 µM | 1 µM | 0.00794 µM | 3.98 µM | – | Cc1nc(C(=O)Nc2cc(-c3cc(Cl)cc4[nH]ccc34)cc3[nH]ncc23)cs1
44 | 15.8 µM | 1 µM | 0.00251 µM | 2 µM | – | C[C@@H]1CN(Cc2cnc(-c3cc(-c4cccc5[nH]ccc45)cc4[nH]ncc34)o2)C[C@H](C)O1
45 | > 25.1 µM | 3.16 µM | 0.1 µM | 1.26 µM | – | Cc1nnc(-c2cc(-c3cccc4[nH]ccc34)cc3[nH]ncc23)o1
46 | 0.2 µM | 0.501 µM | 0.00126 µM | 0.0251 µM | – | Cc1nc(C(=O)Nc2cc(-c3cnc(Cl)c(NS(=O)(=O)c4ccccc4)c3)cc3[nH]ncc23)cs1
47 | > 25.1 µM | 12.6 µM | 0.158 µM | 10 µM | – | O=C(Nc1cc(-c2cccc3[nH]ccc23)cc2[nH]ncc12)c1cscn1
48 | > 25.1 µM | > 25.1 µM | 0.0794 µM | 12.6 µM | – | O=C(Nc1cc(-c2cccc3[nH]ccc23)cc2[nH]ncc12)c1csc(Cc2ccccc2)n1
49 | > 25.1 µM | 20 µM | 1.26 µM | 12.6 µM | – | O=C(Nc1cc(-c2cccc3[nH]ccc23)cc2[nH]ncc12)c1ccccc1
50 | 10 µM | 6.31 µM | 0.1 µM | 6.31 µM | 0.0501 µM | O=C(Nc1cc(-c2cccc3[nH]ccc23)cc2[nH]ncc12)c1ccccn1
51 | 10 µM | 6.31 µM | 0.251 µM | 3.98 µM | – | Cc1cnc(-c2cc(-c3cccc4[nH]ccc34)cc3[nH]ncc23)s1
